Where two headings read alike, the source gives them in different places. Marks after values point to notes of the source that are not given here.
Key:
[1] = Stability and release kinetics of maytansinoid-HSA conjugates in buffer solution at pH 4.0 and pH 7.4; type: physicochemical; conditions: maytansinoid-HSA conjugate, PBS pH 7.4, 37° C.
Procedure: For preparing HSA conjugates of albumin-binding maytansinoids, HSA (200 μM: 361.8 μL, 1078 μM free Cys34; 100 μM: 180.9 μL, 1078 μM free Cys34) was diluted with PBS buffer (4 mM sodium phosphate, 150 mM NaCl, pH 7.4) (200 μM: 678.2 μL; 100 μM: 859.1 μL) and DMSO (200 μM: 130.0 μL; 100 μM: 195.0 μL) and incubated in a heating block at 37° C. for 30 minutes. The albumin-binding maytansinoid was added as a 2 mM stock solution in DMSO (200 μM: 130.0 μL; 100 μM: 65.0 μL) to the preincubated HSA sample to produce a 200 μM or 100 μM solution of maytansinoid-prodrug and 300 μM or 150 μM of free Cys34. The mixture having a pH of 7.4 was allowed to react for 10 min at 37° C. and was then analyzed hourly for 24 hours by RP-HPLC (Phenomenex Aeris WP XB-C18, 3.6 μm, 250×4.6 mm).
For studying the release kinetics at pH 4.0 the mixture was acidified with a mixture of 50 mM sodium acetate buffer pH 3.0 (200 μM: 119.3 μL; 100 μM: 125.2 μL) and 1 M HCl (200 μM: 12.7 μL; 100 μM: 6.8 μL) to reach pH 4.0. The mixture was subsequently analyzed hourly for 24 hours by RP-HPLC (Phenomenex Aeris WP XB-C18, 3.6 μm, 250×4.6 mm).
The following RP-HPLC conditions were used: Phenomenex Aeris WP XB-C18 3.6 μm, 250×4.6 mm; eluent A (100% 20 mM Tris buffer pH 8.0) and eluent B (90:10, MeCN: water) eluting with a gradient of eluent B (25% 0-0.5 min, 25-35% 0.5-2.5 min, 35-85% 2.5-16 min, 85-95% 16-17 min, 95% 17-20 min, 95-25% 20-25 min, 25% 25-30 min, flow rate 1.0 mL/min). Column oven temperature 37° C.; autosampler temperature 37° C.; 20 μL of injection volume.
To quantify the percentage of free drug released, standard curves of the free maytansinoids were prepared at different concentrations (200 μM, 100 μM, 50 μM, 25 μM and 12.5 μM). The area under the curve (AUC) was determined at 250 nm.

[2] = target: T1, albumin (Homo sapiens, UniProt P02768); test: in vitro; type: in vitro ADME; conditions: 37° C., 12.0 μM, read-out: % bound (converted)
T1 construct: tissue Zen-Bio; host or cells: pooled human whole blood (K2EDTA, 36 donors) and plasma prepared from it
T1 sequence (P02768 25-609): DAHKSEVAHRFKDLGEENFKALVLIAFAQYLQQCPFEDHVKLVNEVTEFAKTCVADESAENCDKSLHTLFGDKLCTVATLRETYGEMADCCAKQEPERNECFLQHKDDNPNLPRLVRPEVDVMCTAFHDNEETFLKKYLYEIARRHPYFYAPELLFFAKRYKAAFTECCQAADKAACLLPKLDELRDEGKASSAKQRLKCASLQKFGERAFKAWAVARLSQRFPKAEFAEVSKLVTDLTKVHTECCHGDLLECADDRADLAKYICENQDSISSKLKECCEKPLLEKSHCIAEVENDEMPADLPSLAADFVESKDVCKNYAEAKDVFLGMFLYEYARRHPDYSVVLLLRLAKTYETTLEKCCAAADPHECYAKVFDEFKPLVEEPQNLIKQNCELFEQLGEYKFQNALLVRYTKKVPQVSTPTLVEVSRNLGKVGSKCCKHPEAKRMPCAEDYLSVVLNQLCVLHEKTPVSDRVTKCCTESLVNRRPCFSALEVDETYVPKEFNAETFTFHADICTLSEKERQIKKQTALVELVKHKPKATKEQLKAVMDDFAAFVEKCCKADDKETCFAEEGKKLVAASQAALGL
Procedure: To study the binding kinetics of the albumin-binding maytansinoids in pooled human plasma and pooled human whole blood, the compounds were incubated together with pooled human plasma at 37° C. and samples were taken at specified time points. Remaining albumin-binding maytansinoids were quantitated by HPLC.
To study the binding kinetics in human whole blood, the blood (K2EDTA, 36 donors, Zen-Bio; 900 μL) was preincubated at 37° C. for 30 min in a heating block. To study the binding kinetics in pooled human plasma, the pooled whole blood was centrifuged (10 min, 1811 g), the supernatant plasma was collected and then preincubated at 37° C. for 30 min.
The albumin-binding maytansinoid was added to the preincubated whole blood/plasma sample as a 10-fold dilution in PBS of a 1.2 mM stock solution in 2.5% propylene glycol in 10 mM sodium phosphate buffer and 1.48 mM citrate (100 μL) to produce a 12.0 μM solution of the respective albumin-binding maytansinoid. Samples (190 μL) were taken after 15 s, 2 min, 4 min, 8 min and 15 min. The samples were directly added to 760 μL MeCN containing maytansine (5 μg/mL) as an internal standard and vortexed for 1 min. After centrifugation (1 min at 12,044 g) the supernatant (850 μL) was concentrated under high vacuum. The residue was taken up in DMSO/water (1:1 v/v; 95 μL) and then analyzed by RP-HPLC. Percentage of binding was determined by comparison of the area under the curve (AUC) at 220 nm of the albumin-binding maytansinoid relative to a control sample (100% value) in PBS buffer. All experiments were performed in triplicates.
HPLC method: Phenomenex Kinetex Polar C18, 2.6 μm, 100 Å, 150×4.6 mm; eluent A (95:5 5 mM ammonium acetate: MeCN) and eluent B (5:95 5 mM ammonium acetate: MeCN) eluting with a gradient of eluent B (30% 0-0.5 min, 30-95% 0.5-9.0 min, 95% 11.0 min, 95-30% 11.0-14.5 min, 30% 15.0 min, flow rate=1.0 mL/min). Column oven temperature ambient temperature; autosampler temperature 4° C.; 50 μL of injection volume.

With `COc1cc2cc(c1Cl)N(C)C(=O)C[C@H](OC(=O)COc1cccc(/C(C)=N/NC(=O)c3ccc(NC(=O)CCCCCN4C(=O)C=CC4=O)cc3S(=O)(=O)O)c1)[C@]1(C)O[C@H]1[C@H](C)[C@@H]1C[C@@](O)(NC(=O)O1)[C@H](OC)/C=C/C=C(\C)C2` [Compound 31] the “free maytansinoid after 24 h at pH 7.4” value ([1]; measured at 100 μM) was 3.7%**, the “free maytansinoid after 24 h at pH 7.4” value ([1]; measured at 200 μM) was 4.0%* and the fraction unbound ([2]; blood, pooled human whole blood, 15 s) was 0.008. It also gave a fraction unbound ([2]; blood, pooled human whole blood, 8 min) of 0.007, a fraction unbound ([2]; plasma, pooled human plasma, 15 s) of 0.08 and a fraction unbound ([2]; plasma, pooled human plasma, 8 min) of 0.014.
